Source: patent US11590110B2, “Compositions and methods for reactivating latent immunodeficiency virus using a GSK-3 inhibitor” (priority 2017, dated 2023)
“Also recorded” adds a separate entry of the source.

Columns and labels:
[1] = also in the brain; cited from earlier work
[2] = test system: AKT/mTOR pathway in CD4+ T cells; experiment: Example 5: RNA and protein expression profiling with nanoString; format: cell-based, human; settings: 1 μM
Method: Quantitative RNA and protein expression data were generated using the nCounter Vantage 3D Solid Tumor Assay and the nCounter SPRINT profiler (NanoString Technologies), comprising 770 RNA and 30 protein targets including positive and negative controls. 1-3 million negatively selected primary CD4^+ T cells purified from HIV-positive donors on suppressive ART, as described above, were treated with 1 μM tideglusib or left untreated (DMSO control). […]. For RNA samples, an additional RNA purification step (Qiagen miRNeasy Mini Kit) was necessary to ensure an appropriate sample input for the nCounter assay. A total of at least 30 ng RNA was used for each sample. Otherwise, samples were processed according to the manufacturer's instructions. RNA and protein expression values were normalized and analyzed using the nSolver Analysis Software 4.0 and the add-on Advanced Analysis Software 2.0.115 (NanoString Technologies). Normalization genes for each sample were automatically selected by the software based on the geNorm algorithm (ref vandesompele). Biological replicates were then grouped according to treatment and the differential expression of each analyte-type (RNA or protein target) was determined in comparison to the untreated condition by considering inter-donor differences as confounding variables. Based on the differential expression of each gene, pre-defined gene sets by nanoString, representing different pathways included in this assay, were analyzed by calculating global significance scores for each gene set within each treatment, as follows: […]

[3] = test system: latent HIV in CD4+ T cells from HIV-1-infected individuals on suppressive ART; experiment: Example 1: reactivation of latent HIV, viral mRNA in culture supernatant by ddPCR; settings: 48 hours
CD4+ T cells [4] = experiment: Example 5: CD4+ T cell viability, Cell Titer Blue assay; format: cell-based, human; settings: 48 hours; SB-216763 and tideglusib 10/100/1000 nM; bryostatin-1 10 nM
Method: 25 μl from each well/treatment were incubated with Cell Titer Blue reagent (Promega) for 3 to 4 hours at 37° C. The assay is based on the ability of living cells to convert a redox dye (resazurin) into a fluorescent end product (resorufin). Colorimetric analysis of treated cells was done with a Perkin Elmer EnSpire 2300 Multimode plate reader set to detect fluorescence (Ex:579 nm/Em:584 nm).

CD4+ T cells [5] = experiment: Example 5: GLUT1 surface expression, flow cytometry; format: cell-based, human; settings: 2 or 24 hours; 1 μM tideglusib; CD4+ T cells of three HIV-negative donors
Method: Freshly isolated PBMCs or CD4^+ T cells were stained for viability, using the fixable viability dye Zombie violet (1:50, Biolegend) according to the manufacturer's recommendation. Surface staining was performed with the following antibodies at 1:100 dilutions: CD3-PE-Cy7, CD4-APC-Cy7, CD69-FITC, CD25-PE (all 1:100, Biolegend), and Glut-1-Ax647 (BD Bioscience, 566580) in staining buffer for 20 min on ice and cells were fixed in 1% PFA-containing PBS. All flow analysis was performed on the LSRII (BD Biosciences) using FlowJo software (v.10.4.2). Color compensations were performed using single-stained samples for each of the fluorochromes used. Data were analyzed using FlowJo software (TreeStar, San Carlos, Calif.).
Changes to the metabolism of resting CD4^+ T-cells by tideglusib were studied. […] […].

CD4+ T cells [6] = experiment: Example 5: lactate production analysis; format: cell-based, human; settings: 24 hours of treatment
Method: Subsequently, media of the treated samples were tested for production of L-lactated using a Glycolysis Cell-Based Assay Kit (Cayman Chemical). This test measures the quantity of formazan, an artificial chromogenic dye that results from the reduction of tetrazolium salts in the presence of NADH in the culture media. Colored formazan absorbs between 490 and 520 nm and can be detected by a plate reader. Since lactate dehydrogenase catalyzes the reaction between NAD+ and lactate, yielding pyruvate and NADH, which directly reduces the tetrazolium salt, the quantity of formazan produced is proportional to the quantity of L-lactate in the culture medium, and is thus an indirect measurement of glycolysis. In order to determine specific L-Lactate concentration, a standard curve was obtained analyzing absorbance of known concentration of L-lactate as indicated in the manufacturer's protocol.

NF-κB (p65) [7] = experiment: Example 5: NF-κB p65 nuclear translocation, western blot of nuclear extracts; format: cell-based, human; settings: 1 μM tideglusib or anti-CD3/CD28 coated beads; CD4+ T cells of three HIV-negative participants
Method: Nuclear extracts were prepared from purified CD4^+ T cells using the NE-PER Nuclear and Cytoplasmic Extraction reagent supplemented with protease inhibitor cocktail, as specified by the manufacturers protocol (Thermoscientific, catalogue no. 78833). Protein concentration of extracts was determined by Biorad protein assay (Biorad, catalogue no. 5000001). Nuclear extracts were resolved by electrophoresis on a 10% SDS-polyacrylamide gel using 15 μg of protein per condition and then transferred to PVDF membrane. Membranes were immunoblotted with primary antibodies for p65 (Cell signal Tech., catalogue no. 8242) and TATA binding protein (Abcam, catalogue no. ab63766); primary antibodies were diluted at 1:1000. Detection of primary antibodies was achieved by incubation with HRP conjugated secondary antibody. Bands were visualized by chemiluminescent detection using Immobilon Forte Western HRP ECL substrate (Millipore, catalogue no. WBLUF0100) followed by exposure to hyperfilm ECL (GE/Amersham, catalogue no. 45001508).

NF-κB (p65) [8] = experiment: Example 5: NF-κB (p65) binding with target DNA sequences, ELISA; format: cell-based, human; settings: 1 μM
Method: To determine the specific NF-κB p65 DNA binding activity of treated CD4^+ T cells, an aliquot of the same nuclear extracts used for the p65/TBP western blots were submitted to the Transcription Factor Assay kit (Abcam, catalogue no. ab133112). Following the manufactures instructions sequentially, nuclear extracts were incubated in the TFA 96 well plate coated with double strand DNA NF-κB oligos. The wells were washed then incubated with primary anti-p65 antibody that is then detected by incubation with HRP conjugated secondary antibody. Developing reagents are added and absorbance is read at 450 nm. The level of absorbance indicates the DNA binding activity. For each donor experiment, binding specificity controls include a NF-κB competitor dsDNA control well and a non-specific binding control well. The assay was performed on 3 different donor samples.

## O=c1sn(-c2cccc3ccccc23)c(=O)n1Cc1ccccc1 [Tideglusib, 4-benzyl-2-(naphthalen-1-yl)-1,2,4-thiadiazolidine-3,5-dione]
[1]
  tissue-permeability: high tissue-permeability also in the brain
[2]; 15 minutes post-treatment
  activation of the AKT/mTOR pathway (phosphorylation of GSK-3β, AKT and TSC2): non-significant activation
[2]; 1 hour
  activating phosphorylation of p70S6K on T389: significant phosphorylation values
  inhibiting phosphorylation of GSK-3β on S9: significant phosphorylation values
[2]; 6 hours
  inhibiting phosphorylation of TSC2 on T1426: statistically-relevant phosphorylation
  phosphorylation of AKT on S473: statistically-relevant phosphorylation
[2]; after 1 and 6 hours
  overall transcriptome changes, pathways (700 transcripts): activation of the mitogen-activated protein kinase (MAPK), PI3K, Ras, Wnt and TGFβ pathways and deactivation of the Hedgehog, Notch and Janus kinases (JAK) and signal transducer and activator of transcription proteins (STAT)-pathways
[3]; 1 μM, one donor
  induction of viral mRNA in culture supernatant, highest single donor: up to 60 fold
[3]; 1 μM, vs DMSO-treated cells
  average increase in viral mRNA released into the culture supernatant compared to untreated control: 30 fold
[3]
  reactivation of latent HIV from CD4+ T cells upon ex vivo treatment: high level of reactivation; also recorded: even greater than that demonstrated with SB-216763
CD4+ T cells [4]
  CD4+ T-cell viability: does not reduce viability
CD4+ T cells [5]
  GLUT1 surface expression over the untreated control: did not increase GLUT1 surface expression
CD4+ T cells [6]
  L-lactate in the culture media: did not result in an increase of L-lactate
NF-κB (p65) [7]
  time of peak p65 nuclear translocation: 60 min
NF-κB (p65) [8]
  p65/DNA binding: time-dependent increase
